From patent US20250326753A1, “DUAL CXCR4-BTK INHIBITORS” (X4 Pharmaceuticals, Inc., priority 2022, published 2025)
Where two headings read alike, the source gives them in different places.

Tests used:
Format in all cases: biochemical
PAK2 = molecular target: T1, PAK2 (Homo sapiens, UniProt Q13177); experiment: PanQinase kinase panel: PAK2; conditions: read-out: INHIBITORY EFFECT @ 1 uM: PAK2
T1 construct: purchased Reaction Biology Europe GmbH
Method: (§1) Screening procedures were performed in accordance with the company's on-line protocol [accessed on-line Mar.
(§2) For each kinase, the median value of the cpm of three wells was defined as “low control” (n=3). This value reflects unspecific binding of radioactivity to the plate in the absence of a protein kinase but in the presence of the substrate. Additionally, for each kinase the median value of the cpm of three other wells was taken as the “high control,” i.e. full activity in the absence of any inhibitor (n=3). The difference between high and low control of each enzyme was taken as 100% activity.
(§3) As part of the data evaluation the low control of each kinase was subtracted from the high control value as well as from their corresponding “compound values”. The residual activity (in %) for each compound well was calculated by using the following formula: Res. Activity (%)=100×[(signal of compound−low control)/(high control−low control)].

CSK = molecular target: T2, CSK (Homo sapiens, UniProt P41240); experiment: PanQinase kinase panel: CSK; conditions: read-out: INHIBITORY EFFECT @ 1 uM: CSK
T2 construct: purchased Reaction Biology Europe GmbH
Method: as §1, §2, §3

RAF1 YDYD = molecular target: T3, RAF1 YDYD (Homo sapiens, UniProt P04049, Y340D/Y341D); experiment: PanQinase kinase panel: RAF1 YDYD; conditions: read-out: INHIBITORY EFFECT @ 1 uM: RAF1 YDYD
T3 construct: purchased Reaction Biology Europe GmbH
Method: as §1, §2, §3

TRKB = molecular target: T4, TRKB (Homo sapiens, UniProt Q16620); experiment: PanQinase kinase panel: TRKB; conditions: read-out: INHIBITORY EFFECT @ 1 uM: TRKB
T4 construct: purchased Reaction Biology Europe GmbH
Method: as §1, §2, §3

PKN3 = molecular target: T5, PKN3 (Homo sapiens, UniProt Q6P5Z2); experiment: PanQinase kinase panel: PKN3; conditions: read-out: INHIBITORY EFFECT @ 1 uM: PKN3
T5 construct: purchased Reaction Biology Europe GmbH
Method: as §1, §2, §3

TRKC = molecular target: T6, TRKC (Homo sapiens, UniProt Q16288); experiment: PanQinase kinase panel: TRKC; conditions: read-out: INHIBITORY EFFECT @ 1 uM: TRKC
T6 construct: purchased Reaction Biology Europe GmbH
Method: as §1, §2, §3

BTK [1] = molecular target: T7, BTK (Homo sapiens, UniProt Q06187); experiment: PanQinase kinase panel: BTK; parameters: purchased Reaction Biology Europe GmbH
Method: as §1, §2
As part of the data evaluation the low control of each kinase was subtracted from the high control value as well as from their corresponding “compound values”.

LCK = molecular target: T8, LCK (Homo sapiens, UniProt P06239); experiment: PanQinase kinase panel: LCK; conditions: read-out: INHIBITORY EFFECT @ 1 uM: LCK
T8 construct: purchased Reaction Biology Europe GmbH
Method: as §1, §2, §3

[2] = molecular target: T9, BTK (Bruton tyrosine kinase) (Homo sapiens, UniProt Q06187); experiment: BTK screening assay (33PanQinase Activity Assay, radiometric); conditions: Inhibition of BTK, radiometric 33PanQinase Activity Assay, 3 μM ATP, 10 concentrations in singlicate, top 10 μM; read-out: 33PanQinase ® Radiometric IC50
T9 construct: GST or His (the text leaves open which); purchased Reaction Biology Europe GmbH Lot 012,11; host or cells: Sf9 insect cells or E. coli (not resolved)

VEGFR2 = molecular target: T10, VEGFR2 (Homo sapiens, UniProt P35968); experiment: PanQinase kinase panel: VEGFR2; conditions: read-out: INHIBITORY EFFECT @ 1 uM: VEGFR2
T10 construct: purchased Reaction Biology Europe GmbH
Method: as §1, §2, §3

BTK [3] = molecular target: T7, BTK; experiment: BTK Kinase Enzyme System with ADP-Glo Kinase Assay; parameters: Recombinant full-length human BTK was expressed by baculovirus in Sf9 insect cells; His (N); purchased Promega V9071; host or cells: Sf9 insect cells (baculovirus); conditions: 50 μM ATP
Method: Inhibition of BTK activity was evaluated using the BTK Kinase Enzyme System in combination with the ADP-Glo™ Kinase Assay Kit (V9071, Promega), according to manufacturer's instructions. Luminescence was detected on a PerkinElmer EnVision Multimode Plate Reader.
Recombinant full-length human BTK was expressed by baculovirus in Sf9 insect cells using an N-terminal His tag, MW ˜78 kDa. Substrate solution contained Poly (4:1 Glu, Tyr) Peptide Substrate. BTK Kinase Buffer consisted of: 40 mM Tris, pH 7.5; 20 mM MgCl2; 0.1 mg/ml BSA; 2 mM MnCl2; 50 μM DTT. ADP-Glo™ Reagents were thawed at ambient temperature; components of BTK Enzyme System, ADP and ATP were thawed on ice. Final assay conditions used 3 ng BTK, 50 μM ATP, and 0.2 mg/mL substrate. Compounds were tested at 11 dose points in duplicates, in 3-fold dilution with top concentration at 10 μM.
Assay performance was evaluated according to the reference compound Staurosporine, which was within 3-5 fold of published results and between different tests, with a Z′ value larger than 0.5, where applicable.

[4] = read-out: INHIBITORY EFFECT @ 1 uM: BTK

T7 sequence (Q06187 whole entry): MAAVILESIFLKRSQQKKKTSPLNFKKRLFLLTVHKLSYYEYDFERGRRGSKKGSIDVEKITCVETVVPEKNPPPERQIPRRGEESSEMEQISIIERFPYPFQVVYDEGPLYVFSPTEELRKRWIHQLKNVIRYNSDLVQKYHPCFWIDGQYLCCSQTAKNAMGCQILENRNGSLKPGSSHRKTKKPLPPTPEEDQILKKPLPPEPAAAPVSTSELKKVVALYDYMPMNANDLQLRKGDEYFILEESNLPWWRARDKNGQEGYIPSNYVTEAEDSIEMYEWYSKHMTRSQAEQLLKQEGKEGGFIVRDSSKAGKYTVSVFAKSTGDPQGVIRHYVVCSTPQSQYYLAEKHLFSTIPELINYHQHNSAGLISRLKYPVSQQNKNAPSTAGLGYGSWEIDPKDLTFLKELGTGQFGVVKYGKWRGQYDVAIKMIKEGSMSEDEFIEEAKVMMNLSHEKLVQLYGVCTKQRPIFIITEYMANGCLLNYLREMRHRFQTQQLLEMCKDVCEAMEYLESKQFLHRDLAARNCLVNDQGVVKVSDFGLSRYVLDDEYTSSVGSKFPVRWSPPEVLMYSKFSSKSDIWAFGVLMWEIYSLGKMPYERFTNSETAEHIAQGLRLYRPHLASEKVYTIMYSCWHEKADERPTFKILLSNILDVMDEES
T9 sequence (Q06187 whole entry): as above
T6 sequence (Q16288 32-839): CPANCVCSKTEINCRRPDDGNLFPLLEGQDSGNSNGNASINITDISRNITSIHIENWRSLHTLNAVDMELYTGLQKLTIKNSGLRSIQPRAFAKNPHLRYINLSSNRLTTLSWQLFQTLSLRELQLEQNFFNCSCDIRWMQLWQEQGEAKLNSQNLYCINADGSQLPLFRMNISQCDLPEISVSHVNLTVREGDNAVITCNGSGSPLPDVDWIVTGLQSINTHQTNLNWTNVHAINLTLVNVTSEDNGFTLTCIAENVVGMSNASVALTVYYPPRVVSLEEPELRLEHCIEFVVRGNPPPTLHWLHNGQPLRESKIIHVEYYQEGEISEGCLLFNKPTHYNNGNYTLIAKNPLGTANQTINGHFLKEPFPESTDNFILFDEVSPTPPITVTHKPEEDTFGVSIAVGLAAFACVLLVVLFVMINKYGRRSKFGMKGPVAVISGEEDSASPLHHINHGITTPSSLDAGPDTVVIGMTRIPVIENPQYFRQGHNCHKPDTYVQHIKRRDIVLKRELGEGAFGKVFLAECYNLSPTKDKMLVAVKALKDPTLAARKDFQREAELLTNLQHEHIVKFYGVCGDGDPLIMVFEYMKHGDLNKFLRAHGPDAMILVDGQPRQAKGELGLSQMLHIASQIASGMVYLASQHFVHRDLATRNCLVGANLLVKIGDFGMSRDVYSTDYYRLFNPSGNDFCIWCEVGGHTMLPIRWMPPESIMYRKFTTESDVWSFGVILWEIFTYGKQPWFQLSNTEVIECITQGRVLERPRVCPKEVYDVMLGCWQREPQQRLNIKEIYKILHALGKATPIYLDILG
T5 sequence (Q6P5Z2 whole entry): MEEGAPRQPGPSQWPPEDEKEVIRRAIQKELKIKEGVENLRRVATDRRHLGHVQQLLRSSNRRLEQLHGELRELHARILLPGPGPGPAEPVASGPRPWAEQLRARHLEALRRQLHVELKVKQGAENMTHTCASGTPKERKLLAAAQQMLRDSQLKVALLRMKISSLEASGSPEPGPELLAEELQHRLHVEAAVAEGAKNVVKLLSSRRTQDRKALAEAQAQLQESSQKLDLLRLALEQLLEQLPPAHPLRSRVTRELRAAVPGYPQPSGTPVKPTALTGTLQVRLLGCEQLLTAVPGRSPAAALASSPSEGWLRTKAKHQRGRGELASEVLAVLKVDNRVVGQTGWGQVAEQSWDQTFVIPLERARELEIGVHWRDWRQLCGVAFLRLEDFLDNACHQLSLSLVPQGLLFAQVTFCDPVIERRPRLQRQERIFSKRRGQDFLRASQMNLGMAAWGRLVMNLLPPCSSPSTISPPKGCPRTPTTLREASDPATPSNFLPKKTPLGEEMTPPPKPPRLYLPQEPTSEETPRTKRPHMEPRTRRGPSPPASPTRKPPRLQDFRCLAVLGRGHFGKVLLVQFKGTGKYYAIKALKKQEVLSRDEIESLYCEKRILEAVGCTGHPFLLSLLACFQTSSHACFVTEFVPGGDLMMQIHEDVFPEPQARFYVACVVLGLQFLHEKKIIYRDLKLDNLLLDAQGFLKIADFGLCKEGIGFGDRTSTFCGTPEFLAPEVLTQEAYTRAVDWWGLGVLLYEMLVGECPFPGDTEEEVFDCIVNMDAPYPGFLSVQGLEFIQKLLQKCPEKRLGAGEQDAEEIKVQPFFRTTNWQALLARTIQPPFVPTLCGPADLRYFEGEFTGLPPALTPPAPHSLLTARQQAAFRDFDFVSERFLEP
T1 sequence (Q13177 whole entry): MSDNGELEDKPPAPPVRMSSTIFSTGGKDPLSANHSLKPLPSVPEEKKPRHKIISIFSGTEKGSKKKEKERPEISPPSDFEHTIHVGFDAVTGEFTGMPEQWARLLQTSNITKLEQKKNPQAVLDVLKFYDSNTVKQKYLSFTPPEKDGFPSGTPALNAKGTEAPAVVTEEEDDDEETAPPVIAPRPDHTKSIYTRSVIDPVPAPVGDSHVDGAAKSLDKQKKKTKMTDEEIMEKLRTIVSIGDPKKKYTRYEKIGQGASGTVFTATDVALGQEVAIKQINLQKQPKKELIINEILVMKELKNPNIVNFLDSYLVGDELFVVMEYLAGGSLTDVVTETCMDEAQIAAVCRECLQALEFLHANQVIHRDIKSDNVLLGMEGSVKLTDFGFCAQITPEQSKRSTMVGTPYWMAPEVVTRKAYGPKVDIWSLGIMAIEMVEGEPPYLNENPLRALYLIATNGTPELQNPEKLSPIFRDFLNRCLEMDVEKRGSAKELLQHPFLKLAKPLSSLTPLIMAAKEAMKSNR
T2 sequence (P41240 whole entry): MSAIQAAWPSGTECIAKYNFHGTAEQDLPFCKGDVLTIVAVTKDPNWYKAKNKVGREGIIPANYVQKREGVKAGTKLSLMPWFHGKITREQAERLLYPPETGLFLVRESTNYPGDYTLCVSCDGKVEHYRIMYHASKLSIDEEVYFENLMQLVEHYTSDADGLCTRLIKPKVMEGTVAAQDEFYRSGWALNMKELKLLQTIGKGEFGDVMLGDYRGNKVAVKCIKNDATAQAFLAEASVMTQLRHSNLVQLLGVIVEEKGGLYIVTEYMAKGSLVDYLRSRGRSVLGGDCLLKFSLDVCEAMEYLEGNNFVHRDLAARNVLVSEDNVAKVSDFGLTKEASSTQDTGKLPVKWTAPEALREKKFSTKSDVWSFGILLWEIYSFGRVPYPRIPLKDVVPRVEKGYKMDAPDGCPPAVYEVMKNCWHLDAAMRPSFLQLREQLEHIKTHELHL
T10 sequence (P35968 20-1356): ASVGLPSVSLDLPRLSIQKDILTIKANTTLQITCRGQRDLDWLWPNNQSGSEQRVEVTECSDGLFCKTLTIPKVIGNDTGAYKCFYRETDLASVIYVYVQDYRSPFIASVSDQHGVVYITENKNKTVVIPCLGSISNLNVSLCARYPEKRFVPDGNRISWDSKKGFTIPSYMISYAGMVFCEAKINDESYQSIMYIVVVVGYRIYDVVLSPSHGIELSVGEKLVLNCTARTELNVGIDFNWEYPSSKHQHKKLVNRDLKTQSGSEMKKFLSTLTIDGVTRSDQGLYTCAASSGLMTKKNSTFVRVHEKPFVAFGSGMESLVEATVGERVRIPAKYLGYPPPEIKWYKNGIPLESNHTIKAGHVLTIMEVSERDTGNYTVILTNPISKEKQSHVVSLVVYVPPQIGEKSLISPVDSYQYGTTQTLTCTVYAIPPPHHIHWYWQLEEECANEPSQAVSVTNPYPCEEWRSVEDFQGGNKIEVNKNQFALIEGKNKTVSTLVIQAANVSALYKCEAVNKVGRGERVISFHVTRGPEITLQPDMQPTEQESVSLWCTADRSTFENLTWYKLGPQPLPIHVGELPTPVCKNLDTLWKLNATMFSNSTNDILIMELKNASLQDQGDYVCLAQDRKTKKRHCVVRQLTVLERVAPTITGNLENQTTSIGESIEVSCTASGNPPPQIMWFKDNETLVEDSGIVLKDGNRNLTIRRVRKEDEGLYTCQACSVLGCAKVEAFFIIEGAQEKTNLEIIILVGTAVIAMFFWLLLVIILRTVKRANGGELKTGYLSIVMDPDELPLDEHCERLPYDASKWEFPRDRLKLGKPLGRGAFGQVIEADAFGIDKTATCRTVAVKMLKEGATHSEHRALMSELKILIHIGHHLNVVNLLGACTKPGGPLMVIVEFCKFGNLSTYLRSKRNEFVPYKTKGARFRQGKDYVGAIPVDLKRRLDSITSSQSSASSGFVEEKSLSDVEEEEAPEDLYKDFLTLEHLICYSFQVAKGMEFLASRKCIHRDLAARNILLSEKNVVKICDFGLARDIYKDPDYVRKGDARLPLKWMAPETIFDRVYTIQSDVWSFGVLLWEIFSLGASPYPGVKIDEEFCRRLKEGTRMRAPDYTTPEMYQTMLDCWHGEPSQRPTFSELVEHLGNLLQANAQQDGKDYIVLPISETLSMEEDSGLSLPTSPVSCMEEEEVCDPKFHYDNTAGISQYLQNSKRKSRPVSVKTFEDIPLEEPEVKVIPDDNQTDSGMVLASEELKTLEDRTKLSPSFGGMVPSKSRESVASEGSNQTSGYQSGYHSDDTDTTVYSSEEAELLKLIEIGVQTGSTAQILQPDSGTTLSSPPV
T3 sequence (P04049 307-648 Y340D/Y341D limits assumed): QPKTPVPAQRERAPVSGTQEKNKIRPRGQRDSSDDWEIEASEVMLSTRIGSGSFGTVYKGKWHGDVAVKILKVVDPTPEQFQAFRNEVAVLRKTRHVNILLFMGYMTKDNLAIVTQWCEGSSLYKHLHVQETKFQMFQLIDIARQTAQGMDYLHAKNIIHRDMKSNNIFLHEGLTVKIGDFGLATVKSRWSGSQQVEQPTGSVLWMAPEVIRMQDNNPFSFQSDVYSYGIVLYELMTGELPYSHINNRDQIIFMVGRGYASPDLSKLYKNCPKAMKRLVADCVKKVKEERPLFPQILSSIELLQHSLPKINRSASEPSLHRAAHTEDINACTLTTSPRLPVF

Compound | inhibition at 1 µM (PAK2) [%] | inhibition at 1 µM (CSK) [%] | inhibition at 1 µM (RAF1 YDYD) [%] | inhibition at 1 µM (TRKB) [%] | inhibition at 1 µM (PKN3) [%] | inhibition at 1 µM (TRKC) [%] | inhibition at 1 µM (BTK [1]; [4]) [%] | inhibition at 1 µM (LCK) [%] | IC50 [2] [nM] | inhibition at 1 µM (VEGFR2) [%] | IC50 (BTK [3]) [nM] | inhibition at 1 µM (BTK [1]; 1 μM, read-out: inhibitor effect on BTK) [%]
O=C(c1ccc(Oc2ccccc2)cc1Cl)c1c[nH]c2ncnc(N[C@@H]3CC[C@@H](CO)OC3)c12 [ARQ-531, (2-chloro-4-phenoxyphenyl) (4-(((3R,6S)-6-(hydroxymethyl)tetrahydro-2H-pyran-3-yl)amino)-7H-pyrrolo[2,3-d]pyrimidin-5-yl) methanone] | 70 to 89 | 90 to 100 | 70 to 89 | < 50 | 50 to 69 | < 50 | 90 to 100 | 90 to 100 | – | – | – | –
Cc1cccnc1[C@H]1CCC[C@@H](c2ncccc2C)N1CCN1CCN(C(=O)c2ccc(-c3cc4c(-c5cccc(NC(=O)c6ccccc6)c5C)ncnc4[nH]3)cc2)CC1 [Compound I-10, N-(3-(6-(4-(4-(2-((2R,6S)-2,6-bis(3-methylpyridin-2-yl)piperidin-1-yl)ethyl)piperazine-1-carbonyl)phenyl)-7H-pyrrolo[2,3-d]pyrimidin-4-yl)-2-methylphenyl)benzamide] | < 50 | < 50 | < 50 | < 50 | 50 to 69 | < 50 | 90 to 100 | < 50 | 1 to 100 | < 50 | 1 to 100 | ≥ 90
Cc1cc(-c2ccnc(Nc3cnn(CCN4[C@@H](c5ncccc5C)CCC[C@H]4c4ncccc4C)c3)n2)ccc1CNC(=O)N1CC(OC(C)C)C1 [Compound I-11] | – | – | – | – | – | – | – | – | 1 to 100 | – | 1 to 100 | –
Cc1cccnc1[C@H]1CCC[C@@H](c2ncccc2C)N1CCCCNC(=O)[C@@H]1CC[C@@H](Nc2ncnc3[nH]cc(C(=O)c4ccc(Oc5ccccc5)cc4Cl)c23)CO1 [Compound I-16] | – | – | – | – | – | – | – | – | 1 to 100 | – | 1 to 100 | –
Cc1cccnc1[C@H]1CCC[C@@H](c2ncccc2C)N1CCCCNC(=O)OC[C@@H]1CC[C@@H](Nc2ncnc3[nH]cc(C(=O)c4ccc(Oc5ccccc5)cc4Cl)c23)CO1 [Compound I-18] | – | – | – | – | – | – | – | – | 1 to 100 | – | 1 to 100 | –
COc1ccc(F)cc1C(=O)NCc1ccc(-c2nn([C@@H](C)C(F)(F)F)c(N)c2C(N)=O)cc1 [LOXO-305, pirtobrutinib] | < 50 | 70 to 89 | < 50 | 50 to 69 | < 50 | 50 to 69 | 90 to 100 | < 50 | – | < 50 | – | –
C=CC(=O)N1CCC([C@@H]2CCNc3c(C(N)=O)c(-c4ccc(Oc5ccccc5)cc4)nn32)CC1 [Zanubrutinib, (7S)-2-(4-phenoxyphenyl)-7-(1-prop-2-enoylpiperidin-4-yl)-4,5,6,7-tetrahydropyrazolo[1,5-a]pyrimidine-3-carboxamide] | < 50 | – | < 50 | < 50 | < 50 | < 50 | – | < 50 | – | < 50 | – | –
